We go through 1 compound from article PMC8592027, “Structure-Guided Design of D-Galactal Derivatives with High Affinity and Selectivity for the Galectin-8 N-Terminal Domain” (ACS Medicinal Chemistry Letters, 2021).

Entries after “also recorded” stand apart in the source; their conditions may differ.

Data set [1] deals with T1, galectin-1 (Homo sapiens, UniProt P09382).
T1 construct: made in house
In words: Competitive fluorescence polarization assay, galectin-1. Type of data set: binding. The settings on record: mean ± SEM of n = 4–8. The protocol:
(§1) 1. Competitive fluorescence polarization experiments:
(§2) Human galectins -1, -3, -4N, -4C, -7, -8N, -9N, and -9C were expressed and purified as previously described 30,41. Fluorescence polarisation experiments were performed using the PHERAstar FS plat e reader (software version 2.10 R3), and the fluorescence anisotropy of fluorescein tagged probes was measured by excitation at 485 nm and emission at 520 nm. The specific conditions for galectins -1, -3, -4N, -4C, -7, -8N, -9N, and -9C were kept as report ed30,41,42. The synthesised compounds were dissolved in pure DMSO at 20 mM concentration and diluted in PBS to 3-6 different concentrations, and each concentration was tested in duplicate. The highest inhibitor concentrations tested were 1.5 mM. The

Data set [2] concerns human peripheral blood mononuclear cells (PBMCs). In words: MTS metabolic activity (cytotoxicity) assay, PBMCs. It is filed as cell-based. The settings on record: concentrations up to 100 μM, 24 hours. The protocol:
(§3) We have investigated the cytotoxicity of the compounds 1, 6a, and 6c via a (3-(4,5-dimethylthiazol-2-yl)-5-(3-carboxymethoxyphenyl)-2-(4-sulfophenyl)-2H-tetrazolium) (MTS) assay in K562 and MDA-MB-231 cancer cell lines to establish the direct antitumor activity of compounds, as well as human peripheral blood mononuclear cells (PBMCs), to evaluate their safety.
(§4) Metabolic activity assay:
(§5) The metabolic activities of the cell lines were determined using the CellTiter 96 Aqueous One Solution cell proliferation assay (MTS Reagents, Promega, Madison, WI, USA), according to the manufacturer instructions. Briefly, the cells were treated with the selected compounds in 0.1% dimethyl sulfoxide (DMSO; vehicle), 0.1% DMSO (control vehicle), or medium (control) and seeded at a cell density of 5,500 cells/well (MDA-MB-231 cells) or 4 x 10^4 cells/well (K562 cells), 7000 cells/well (HepG2 cells) or 1 x 10^5 cells/well (human PBMCs) in duplicates (MDA-MB-231, K562, and […]) or triplicates for HepG2 cells (100 µL), in sterile 96-well plates. For the MDA-MB-231 and HepG2, the cells were left to adhere overnight before adding the compounds. The plates were then incubated for 24 hours (48 hours for HepG2), after which 15 µL of MTS reagent was added to each well. After 30-90 minute of incubation, the absorbance was measured at 492 nm using a microplate reader (Synergy HTX Multi-Mode; BioTek Instruments, Inc., VT, USA). […]
(§6) Bead Array Human inflammatory cytokine Kit (content: IL-1, IL-6, IL-8, IL-10, IL-12p). The flow cytometric analyses were performed on an Attune NxT flow cytometer (Thermo Fisher Scientific, […]
(§7) Data are represented as means ± standard deviation (SD) from three representative independent experiments.
(§8) All experiments were performed at least twice, with average values expressed as means ± SD. All data were analyzed with the statistical software GraphPad Prism 8.0 (GraphPad Software, Inc., CA, USA). by one-way ANOVA followed with Dunnett’s multiple compar ison test. Differences were considered non-significant for p > 0.05, and significant (*) for p < 0.05. […]

The subject of data set [3] is IL-8 secretion from MDA-MB-231 cells. The experiment in a line: Multiplexed cytokine assay, IL-8 secretion. It is filed as cell-based, human. To be noted: 24 hours, vs untreated cells. Here is the method: Figure 5 Effect of compounds 1 and 6a on the secretion of IL-6 and IL-8 expressed in pg/mL. The effects were measured after incubating the cells with the compounds at 10 and 100 μM. Compounds 1 and 6a reduce the secretion of IL-6 and IL-8 in a dose-dependent manner at 100 and 10 μM. Results shown are means ± SEM of three independent experiments. ns, not significant (p > 0.05); *p < 0.05 versus untreated controls.
Metabolic activity assay: […]
Briefly, the cells were treated with the selected compounds in 0.1% dimethyl sulfoxide (DMSO; vehicle), 0.1% DMSO (control vehicle), or medium (control) and seeded at a cell density of 5,500 cells/well (MDA-MB-231 cells) or 4 x 10^4 cells/well (K562 cells), 7000 cells/well (HepG2 cells) or 1 x 10^5 cells/well (human PBMCs) in duplicates (MDA-MB-231, K562, and […]) or triplicates for HepG2 cells (100 µL), in sterile 96-well plates. For the MDA-MB-231 and HepG2, the cells were left to adhere overnight before adding the compounds. The plates were then incubated for 24 hours (48 hours for HepG2), after which 15 µL of MTS reagent was added to each well. […]
HTX Multi-Mode; BioTek Instruments, Inc., VT, USA).
Multiplexed cytokine assay:
MDA-MB-231 cells were seeded in 96-well flat-bottom plates at a density of 2 x 10^4 cells/well in 100 µL of medium and allowed to adhere for 24 hours at 37 °C and 5% CO2. The medium was then replaced by a fresh medium containing the desired concentrations of compounds 1 and 6a, after which the cells were cells incubated again for 24 hours at 37 °C and 5% CO2. Cell-free supernatants were collected and stored at – 80 °C before the analysis. The cytokines secretion was assessed by BD Cytometric Bead Array Human inflammatory cytokine Kit (content: IL-1, IL-6, IL-8, IL-10, IL-12p). The flow cytometric analyses were performed on an Attune NxT flow cytometer (Thermo Fisher Scientific, Waltham, MA, USA). Standard curves were generated using recombinant cytokines provided in the kit, and the data were analyzed with FlowJo software (Tree Star, Inc., Ashland, OR). The results are expressed in pg/mL. Data are represented as means ± standard deviation (SD) from three representative independent experiments.
All experiments were performed at least twice, with average values expressed as means ± SD. All data were analyzed with the statistical software GraphPad Prism 8.0 (GraphPad Software, Inc., CA, USA). by one-way ANOVA followed with Dunnett’s multiple compar ison test. Differences were considered non-significant for p > 0.05, and significant (*) for p < 0.05.

Data set [4] addresses T2, galectin-4C (C-terminal domain) (Homo sapiens, UniProt P56470).
T2 construct: galectins (N = N-terminal domain, C = C-terminal domain); made in house
T2 sequence (P56470 194-323 limits assumed): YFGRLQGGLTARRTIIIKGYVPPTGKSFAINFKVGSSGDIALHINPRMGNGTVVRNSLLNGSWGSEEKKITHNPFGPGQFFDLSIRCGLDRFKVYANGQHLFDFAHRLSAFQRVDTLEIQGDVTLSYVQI
In words: Competitive fluorescence polarization assay, galectin-4C. Type of data set: binding. To be noted: mean ± SEM of n = 4–8. Here is the method: as §1, §2

Data set [5] deals with K562 cancer cell line. The experiment in a line: MTS metabolic activity (cytotoxicity) assay, K562. Type of data set: cell-based. The settings on record: concentrations 1 to 100 μM, 24 hours. Here is the method:
as §3, §4, §5, §6, §7, §8

The target in data set [6] is T3, galectin-7 (Homo sapiens, UniProt P47929).
T3 construct: made in house
The experiment in a line: Competitive fluorescence polarization assay, galectin-7. The settings on record: mean ± SEM of n = 4–8. Type of data set: binding. Here is the method: as §1, §2
For orientation: Polarisation of emitted light reports the rotation of a fluorescent probe.

Data set [7] has as its system MDA-MB-231 cancer cell line. The experiment in a line: MTS metabolic activity (cytotoxicity) assay, MDA-MB-231. It is filed as cell-based, human. To be noted: concentrations 1 to 100 μM, 24 hours. The protocol:
as §3, §4, §5, §6, §7, §8

T3 sequence (P47929 whole entry): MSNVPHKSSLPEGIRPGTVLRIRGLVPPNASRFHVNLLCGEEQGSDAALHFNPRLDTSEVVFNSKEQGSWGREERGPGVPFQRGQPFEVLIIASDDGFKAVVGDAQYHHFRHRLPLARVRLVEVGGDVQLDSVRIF
T1 sequence (P09382 whole entry): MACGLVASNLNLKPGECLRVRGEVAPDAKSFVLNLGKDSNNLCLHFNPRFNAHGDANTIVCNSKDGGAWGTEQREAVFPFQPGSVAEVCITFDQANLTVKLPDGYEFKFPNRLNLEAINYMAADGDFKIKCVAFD

In the case of `Cn1c(CO[C@@H]2C=CO[C@H](CO)[C@@H]2O)nc2ccc(C(=O)O)cc21` [6a], the Kd (in general, a measure of binding affinity in units of concentration) in data set [1] was 1300 ± 130 µM; in data set [4], 1700 ± 150 µM; in data set [6] it was greater than 1500 µM. For the same compound, the “direct cytotoxicity (MTS), PBMCs” value in data set [2] is listed as “lack of direct cytotoxicity”. Also, the “reduction in IL-8 secretion” value in data set [3] (10 μM, effect not significant) is roughly 20%. The “reduction of IL-8 secretion” value in data set [3] (100 μM) is “about 55%”. Also, in data set [5], the “cell viability (MTS), K562” value is recorded as “None of the compounds decreased the viability”. The “cell viability (MTS), MDA-MB-231” value in data set [7] is on record as “None of the compounds decreased the viability; also recorded: no effect on the viability”.
